In PubChem BioAssay (NCI):
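Growth conditions: 96-well plates. Treatment: test compound, 48 hours, 5 concentrations. Analysis: linear interpolation between bracketing concentrations; unreached endpoints set to highest concentration. The concentration for 50% growth inhibition is given as GI50. TGI marks complete inhibition of growth.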

Experiments:
Assay in all cases: NCI anticancer screen, dose series, 48 h
LOX IMVI melanoma = test system: LOX IMVI melanoma
SNB-75 CNS = test system: SNB-75 CNS
A549 NSCLC = test system: A549 NSCLC
HCT-15 colon = test system: HCT-15 colon
SF-295 CNS = test system: SF-295 CNS
BT-549 breast = test system: BT-549 breast
SR leukemia = test system: SR leukemia
SNB-19 CNS = test system: SNB-19 CNS
HT29 colon = test system: HT29 colon
UACC-257 melanoma = test system: UACC-257 melanoma

SMILES	GI50 (LOX IMVI melanoma)	TGI (LOX IMVI melanoma)	GI50 (SNB-75 CNS)	TGI (SNB-75 CNS)	GI50 (A549 NSCLC)	TGI (A549 NSCLC)	GI50 (HCT-15 colon)	TGI (HCT-15 colon)	GI50 (SF-295 CNS)	GI50 (BT-549 breast)	TGI (BT-549 breast)	GI50 (SR leukemia)	TGI (SR leukemia)	GI50 (SNB-19 CNS)	TGI (SNB-19 CNS)	GI50 (HT29 colon)	TGI (HT29 colon)	GI50 (UACC-257 melanoma)	TGI (UACC-257 melanoma)	TGI (SF-295 CNS)
c1ccc2[nH]c(SSc3nc4ncncc4[nH]3)nc2c1	0.279 µM	> 44.6 µM	13.1 µM	> 100 µM	19.4 µM	> 100 µM	3.25 µM	> 100 µM	0.457 µM	2.89 µM	> 100 µM	0.551 µM	> 100 µM	64.5 µM	> 100 µM	2.58 µM	> 100 µM	4.97 µM	> 75.2 µM	–
Nc1ccc(C(=O)c2ccc(N)c(Br)c2)cc1Br	0.848 µM	> 65.7 µM	0.291 µM	13.4 µM	0.494 µM	31.3 µM	0.466 µM	> 100 µM	0.228 µM	1.84 µM	18.8 µM	0.253 µM	1.35 µM	0.637 µM	> 100 µM	0.335 µM	1.18 µM	14.4 µM	> 100 µM	0.664 µM
Cc1cccc(C)c1NC(=O)/C(Cl)=C(/Cl)C(=O)O	–	34.3 µM	–	43.4 µM	–	45.3 µM	–	34.8 µM	–	–	31.5 µM	–	> 57.1 µM	–	> 70.1 µM	–	39.3 µM	–	29.8 µM	> 56.1 µM
O=[N+]([O-])c1ccc(-c2nc(N(CCO)CCO)c3ccccc3n2)o1	0.269 µM	1.64 µM	0.16 µM	0.588 µM	0.128 µM	0.822 µM	0.176 µM	1.71 µM	0.192 µM	0.174 µM	0.758 µM	0.0881 µM	–	0.229 µM	1.41 µM	0.184 µM	3.07 µM	0.189 µM	0.453 µM	1.03 µM
c1cc2c(cc1C(N1CCNCC1)N1CCNCC1)OCO2	–	> 100 µM	–	> 100 µM	–	> 100 µM	–	> 100 µM	–	–	> 100 µM	–	> 100 µM	–	> 100 µM	–	> 100 µM	–	> 100 µM	> 100 µM
C=C1CC[C@@]2(C#N)[C@H]3[C@H](CC[C@@H]2C)[C@@H](C)C[C@@H](CC(C)(C)C#N)[C@H]13	0.413 µM	14.5 µM	0.215 µM	0.705 µM	3.52 µM	34.8 µM	0.604 µM	23.1 µM	0.171 µM	1.23 µM	18.8 µM	1.57 µM	40.3 µM	10.1 µM	70.1 µM	0.469 µM	16.1 µM	8.3 µM	56.4 µM	1.68 µM
O=C(/C=C/C=C/c1ccccc1)CCc1ccccc1	–	> 100 µM	–	> 100 µM	–	> 100 µM	–	> 100 µM	–	–	> 100 µM	–	63.7 µM	–	> 100 µM	–	> 100 µM	–	> 100 µM	> 100 µM
Cc1ccccc1CN1CC2=C(CCN(Cc3ccccc3)C2=O)N2CCN=C12	–	> 100 µM	–	> 100 µM	–	> 100 µM	–	> 100 µM	–	–	> 100 µM	–	> 100 µM	–	> 100 µM	–	> 100 µM	–	> 100 µM	> 60.4 µM
COc1ccc(C2=NN(C(=O)COc3ccc(Cl)cc3)C(O)(c3cc(F)c(Cl)cc3Cl)C2)cc1OC (configuration not stated)	1.4 µM	2.78 µM	2.69 µM	7.3 µM	6.24 µM	18.7 µM	1.39 µM	3 µM	–	2.75 µM	10.7 µM	1.97 µM	6.89 µM	11.7 µM	25.8 µM	1.51 µM	3.24 µM	2.74 µM	8.01 µM	11.8 µM
CCN(CC)CCOc1ccc(Nc2ncc3cc(-c4ccc(O)cc4)c(=O)n(C)c3n2)cc1	0.168 µM	5.87 µM	0.0406 µM	13.7 µM	13.8 µM	30.7 µM	0.191 µM	1.75 µM	13.9 µM	3.33 µM	16.5 µM	0.0662 µM	2.76 µM	8.57 µM	27.5 µM	0.379 µM	2.79 µM	7.57 µM	31.6 µM	30.4 µM
CCCCCNC(=O)[C@@H]1CCCN2C(=O)CC[C@H](NC(=O)[C@H](Cc3ccc(OP(=O)(O)O)cc3)NC(C)=O)C(=O)N12	> 25 µM	> 25 µM	> 25 µM	> 25 µM	> 25 µM	> 25 µM	> 25 µM	> 25 µM	> 25 µM	> 25 µM	> 25 µM	> 25 µM	> 25 µM	> 25 µM	> 25 µM	> 25 µM	> 25 µM	> 25 µM	> 25 µM	> 25 µM
N=C1c2nc3n(c2C(=O)c2nc4n(c21)CCCC4)CCCC3	0.406 µM	2.15 µM	1.83 µM	3.57 µM	1.98 µM	4.33 µM	2.07 µM	6.62 µM	1.74 µM	2.22 µM	4.94 µM	13.4 µM	> 79.3 µM	2.89 µM	12.5 µM	2.56 µM	5.51 µM	1.67 µM	4.81 µM	3.4 µM
COc1cc(Cl)cc(-c2nn(C(=O)NCCN3CCN(C)CC3)cc2-c2ccncc2)c1	18 µM	46.2 µM	1.75 µM	9.65 µM	9.55 µM	> 100 µM	17.2 µM	69.9 µM	7.73 µM	3.37 µM	18.6 µM	29.8 µM	> 100 µM	7.93 µM	> 100 µM	3.32 µM	72.1 µM	20.5 µM	> 100 µM	46.6 µM
OCC(O)C(O)C(O)C1SC(c2ccccc2)=NN1c1ccccc1 (configuration not stated)	–	> 100 µM	–	35.5 µM	–	> 100 µM	–	> 100 µM	–	–	> 100 µM	–	> 100 µM	–	> 89.8 µM	–	> 100 µM	–	> 100 µM	> 100 µM
